{
  "source": "patent US20250114487A1",
  "about": "“COMBINATION TREATMENT OF TUMORS” (The University of Chicago, priority 2023, published 2025)",
  "key": {"QGP1.SSTR2 cells [1]": {"tested_on": "QGP1.SSTR2 cells", "test": "Additional clonogenic assays, QGP1.SSTR2 cells", "format": "cell-based", "details": "single agent (5.6 μCi Lu-177 DOTA-TATE or fulvestrant) compared to untreated cells", "experimental": "Additional clonogenic assays and in-vivo experiments were conducted using Lu-177 DOTA-TATE in combination with Fulvestrant. […] Results are quantified in FIG. 12B. Treatment with Lu-177-DOTA-TATE alone decreased the number of colonies compared to untreated cells and cells treated with fulvestrant alone. Treatment with fulvestrant alone decreased the number of colonies compared to untreated cells."}, "QGP1.SSTR2 mice": {"tested_on": "QGP1.SSTR2 mice", "test": "In vivo PRRT sensitization, xenograft mice (QGP1.SSTR2)", "quoted_text": "In vivo studies were conducted in mice. […] Tumor volume and survival was assessed up to 100 days post injection."}, "QGP1.SSTR2 cells [2]": {"tested_on": "QGP1.SSTR2 cells", "details": "5.6 μCi dose of Lu-177 DOTA-TATE, alone or with 1 uM ATRA or 100 nM Fulvestrant", "quoted_text": "For in vitro studies, QGP1 cells (pancreatic NET cells) were engineered to express luciferase (QGP1.luc) or to express luciferase and overexpress the somatostatin receptor 2 (SSTR2) (QGP1.SSTR2.luc). Cells were treated with PRRT alone, or PRRT in combination with estrogen receptor inhibition or all-trans-retinoic acid (ATRA)."}, "[3]": {"tested_on": "QGP1.SSTR2 cells or QGP1 cells not expressing SSTR2", "quoted_text": "Cells were treated with PRRT alone, or PRRT in combination with estrogen receptor inhibition or all-trans-retinoic acid (ATRA)."}, "[4]": {"tested_on": "ESR1, Rad51, BRCA1, BRCA2 mRNA", "test": "qPCR of mRNA expression of DNA repair factors in QGP-1 cells", "format": "cell-based", "details": "QGP-1 cells treated with Fulvestrant for 36 hours or 72 hours", "quoted_text": "For in vitro experiments, various neuroendocrine tumor (NET) cell lines were used from different primary tumor origins. Specifically, pancreatic cells (QGP-1), small bowel cells (GOT-1), and lung cells (NCI-H727) were used. Cells were supplemented with estrogen (E2)-free or E2-supplemented media to determine the effects of E2 on cell proliferation and DNA repair factors. […] Knockdown of ESR1 was achieved using 30 uM siRNA. qPCR was performed to verify knockdown by quantifying ESR1 mRNA levels.\nQGP-1 cells were growth in media with standard fetal bovine serum (WT), E2-free media for 7 days, or E-2 free media for 2 days followed by growth in E2 media containing 1 uM E2 additive for 24 hours. mRNA expression of DNA repair factors was evaluated by qPCR."}, "QGP-1 cells [5]": {"tested_on": "QGP-1 cells", "test": "In vitro radiosensitization, QGP-1 cells", "format": "cell-based", "details": "3.5 days following 100 nM Fulvestrant + IR (4 Gy) vs IR alone", "from_the_text": "(§1) For in vitro experiments, various neuroendocrine tumor (NET) cell lines were used from different primary tumor origins. Specifically, pancreatic cells (QGP-1), small bowel cells (GOT-1), and lung cells (NCI-H727) were used. Cells were supplemented with estrogen (E2)-free or E2-supplemented media to determine the effects of E2 on cell proliferation and DNA repair factors. ESR1 was inhibited by si-RNA mediated knockdown of ESR1 or by administration of the selective estrogen receptor degrader Fulvestrant. Knockdown of ESR1 was achieved using […] siRNA. qPCR was performed to verify knockdown by quantifying ESR1 mRNA levels. For administration of Fulvestrant, 100 nm Fulvestrant was used.\n(§2) Radiation (IR) was administered using a dose of 4 Gy using external beam radiation therapy (EBRT). Radiation was administered 24 hours following ESR1 inhibition.\n(§3) Cells were treated with […] siRNA against ESR1 followed by irradiation (4 Gy dose), or treated with Fulvestrant followed by irradiation (4 Gy dose). […] Without wishing to be bound by theory, it is possible that estrogen inhibition radiosensitizes cells by decreasing expression of genes involved in DNA repair pathways. This was evaluated by measuring mRNA levels of DNA repair factors Rad51, BRCA1, and BRCA2 following treatment of QGP-1 cells with Fulvestrant for 36 hours or 72 hours."}, "GOT-1 cells": {"tested_on": "GOT-1 cells", "test": "In vitro radiosensitization, GOT-1 cells", "format": "cell-based", "from_the_text": "as §1, §2, §3"}, "QGP-1 cells [6]": {"tested_on": "QGP-1 cells", "test": "Cell counting after irradiation with Fulvestrant and PARPi Talazoparib, QGP-1 cells", "format": "cell-based", "details": "fulvestrant in combination with irradiation vs fulvestrant alone, 3 days after irradiation", "text": "Total number of cells were counted 3 days after irradiation."}, "QGP-1 tumors": {"tested_on": "QGP-1 tumors", "test": "In vivo radiosensitization, mouse xenograft model with QGP-1 tumors", "details": "for cumulative survival: IR (4 Gy) + 5 mg Fulvestrant subcutaneously compared to irradiation alone and Fulvestrant alone; for tumor volume size: compared to control groups", "experimental": "For in vivo experiments, a mouse xenograft model created using QGP-1 cells was used.\nas §2\nRadiosensitization was subsequently evaluated in vivo using a mouse model harboring QGP-1 tumors. Four different treatment groups were used. One group was a control that received neither irradiation nor fulvestrant. The second group received fulvestrant alone (5 mg, subcutaneous). The third group received irradiation alone. The fourth group received irradiation and fulvestrant (5 mg. subcutaneous). Tumor volume and overall survival was evaluated. Tumor volume was evaluated at day 7, day 15, day 24, and day 35 post treatment. […] Control mice were euthanized between day 15 and day 24 due to deteriorating health. At day 24 and day 35, no control mice were surviving and as such results presented therein only show treatment with fulvestrant, treatment with irradiation, or treatment with fulvestrant and irradiation."}, "ER36 or ER56 [7]": {"tested_on": "ER36 or ER56", "test": "Western blot of ERα isoform levels, NCI-H727 cells", "format": "cell-based", "set-up": "dose or concentration left out as unconfirmed", "details": "fulvestrant", "experimental": "(§4) Western blot analysis was conducted in various NET cell lines to investigate expression levels of various ERα isoforms. The breast cancer cell line MCF7 was used as a positive control. […] In contrast, the most common isoform of ERα, ER66 kDa, was not present in QGP1 cells, as compared to MCF7. Expression of ER36 was further verified in NCI-H727 cells (FIG. 8B). Expression of ER56 was further verified in NCI-H727 cells and BON1 cells (FIG. 8C). […] Without wishing to be bound by theory, it is possible that this lack of effect of fulvestrant is because ER36 and ER 56 lack the […] binding region to which fulvestrant binds. […] (FIG. 8E)."}, "ER36 or ER56 [8]": {"tested_on": "ER36 or ER56", "test": "Western blot of ERα isoform levels, QGP1 cells", "format": "cell-based", "details": "100 mM fulvestrant", "experimental": "as §4"}, "SSTR2": {"tested_on": "SSTR2", "test": "Western blot of SSTR2 levels, SSTR2 positive QGP1 cells", "format": "cell-based", "details": "SSTR2 positive QGP1 cells treated with fulvestrant or fulvestrant and irradiation"}, "QGP1 cells": {"tested_on": "QGP1 cells", "test": "QGP1 cell number after irradiation in the presence or absence of estrogen", "format": "cell-based", "details": "3.5 days after irradiation (4 Gy)", "experimental": "Additional experiments were conducted to further evaluated the mechanism behind fulvestrant-induced radiosensitization. QGP1 cells were cultured in the presence or absence of estrogen and treated with fulvestrant, irradiation, or fulvestrant and irradiation. The number of cells were evaluated 3.5 days after irradiation (4 Gy). […] This is a strong indication that the effect of fulvestrant is off-target and not through the estrogen receptor pathway. RNA sequencing experiments were conducted to further evaluate the potential mechanism behind radiosensitization."}},
  "note": "Like-named read-outs stand apart in the source and are kept apart here.",
  "data": [
    {"smiles": "C[C@@H](O)[C@H](NC(=O)[C@@H]1CSSC[C@H](NC(=O)[C@@H](Cc2ccccc2)NC(=O)CN2CCN(CC(=O)[O-])CCN(CC(=O)[O-])CCN(CC(=O)[O-])CC2)C(=O)N[C@@H](Cc2ccc(O)cc2)C(=O)N[C@H](Cc2c[nH]c3ccccc23)C(=O)N[C@@H](CCCCN)C(=O)N[C@@H]([C@@H](C)O)C(=O)N1)C(=O)O.[177Lu+3]", "note": "[Lu-177 DOTA-TATE, lutetium Lu-177 DOTA-TATE]", "values": [
      {"measurement": "number of colonies", "setting": "QGP1.SSTR2 cells [1]", "value": "decreased"},
      {"measurement": "mice surviving at day 100", "setting": "QGP1.SSTR2 mice; Lu-177-DOTA-TATE alone", "value": "less than 25%"},
      {"measurement": "survival", "setting": "QGP1.SSTR2 mice; compared to control mice and mice treated with fulvestrant", "value": "significantly longer"},
      {"measurement": "tumor volume", "setting": "QGP1.SSTR2 mice; day 7 and day 21 post injection, compared to control mice and mice treated with fulvestrant alone", "value": "significantly smaller"},
      {"measurement": "colony count", "setting": "QGP1.SSTR2 cells [2]", "value": "about 40 cells"},
      {"measurement": "cell count", "setting": "[3]; 5.6 μCi Lu-177 DOTA-TATE alone, FIG. 10B", "value": "about 150"},
      {"measurement": "cell count", "setting": "[3]; 14.6 μCi Lu-177 DOTA-TATE alone, FIG. 10C", "value": "less than 40"}
    ]},
    {"smiles": "C[C@]12CC[C@@H]3c4ccc(O)cc4C[C@@H](CCCCCCCCC[S+]([O-])CCCC(F)(F)C(F)(F)F)[C@H]3[C@@H]1CC[C@@H]2O", "note": "(some centres unmarked) [Fulvestrant]", "values": [
      {"measurement": "mRNA levels of Rad51, BRCA1, BRCA2", "setting": "[4]", "value": "lower"},
      {"measurement": "total cell growth", "setting": "QGP-1 cells [5]", "value": "significant decrease"},
      {"measurement": "total cell growth", "setting": "GOT-1 cells; 3.5 days following 100 nM Fulvestrant + irradiation (4 Gy) vs irradiation alone", "value": "significant decrease"},
      {"measurement": "total cell", "setting": "GOT-1 cells; 5 days following 100 nM Fulvestrant + IR (4 Gy) vs IR alone", "value": "significant decrease"},
      {"measurement": "cell death", "setting": "QGP-1 cells [6]", "value": "increases cell death"},
      {"measurement": "cumulative survival", "setting": "QGP-1 tumors", "value": "significantly improved survival"},
      {"measurement": "cumulative survival", "setting": "QGP-1 tumors; listed as Fulevestrant", "value": "significantly improved cumulative survival"},
      {"measurement": "survival, up to", "setting": "QGP-1 tumors; combination of irradiation (4 Gy) and fulvestrant (5 mg, subcutaneous)", "value": "up to 70 days"},
      {"measurement": "tumor volume", "setting": "QGP-1 tumors; day 35 post treatment, irradiation and fulvestrant compared to irradiation alone", "value": "significant decrease"},
      {"measurement": "tumor volume size", "setting": "QGP-1 tumors; fulvestrant alone (5 mg, subcutaneous)", "value": "decreased"},
      {"measurement": "survival, until day", "setting": "QGP-1 tumors; fulvestrant alone (5 mg, subcutaneous), untreated control not past day 18", "value": "≤ 28", "unit": "days"},
      {"measurement": "survival", "setting": "QGP-1 tumors; fulvestrant alone vs untreated control mice", "value": "significantly longer survival"},
      {"measurement": "tumor volume size", "setting": "QGP-1 tumors; irradiation plus fulvestrant (5 mg, subcutaneous)", "value": "decreased"},
      {"measurement": "ER36 or ER56 levels", "setting": "ER36 or ER56 [7]", "value": "not found to influence"},
      {"measurement": "ER36 or ER56 levels", "setting": "ER36 or ER56 [8]", "value": "not found to influence"},
      {"measurement": "SSTR2 levels", "setting": "SSTR2", "value": "did not increase"},
      {"measurement": "radiosensitization (number of cells)", "setting": "QGP1 cells", "value": "radiosensitizes cells regardless of whether estrogen was present or not present"},
      {"measurement": "number of colonies", "setting": "QGP1.SSTR2 cells [1]", "value": "decreased"},
      {"measurement": "survival", "setting": "QGP1.SSTR2 mice; compared to control mice", "value": "did not show significant differences"}
    ]}
  ]
}
